# Measured values published in patent US20100204097A1, “THERAPEUTIC METHODS USING A THYMUS PEPTIDE” (IMMUNE SYSTEM KEY LTD., priority 2006, published 2010).
# Legend:
# [1] = Blood liver enzyme levels (AST, ALP, ALT) in mice after 3 weeks of treatment; format: in vivo; conditions: female Balb/C mice, 50 μg/Kg twice a day for 3 weeks, versus saline
# Method: (§1) Two groups of 7 weeks old female Balb/C mice were injected twice a day for 3 weeks with either T101 (50 μg/Kg) (8 mice), or with saline (control) (7 mice). After 3 weeks, blood was collected from the mice and pooled, and the cholesterol level (mg/DL) was measured.
# Liver enzymes levels (μg/L) were measured in the blood of the mice of Example 7. The enzymes measured were aspartate aminotransferase (AST), alkaline phosphatase (ALP) and alanine aminotransferase (ALT).
# U937 cells [2] = assay: Western blot for Bcl-2 and full length caspase 9 in U937 cells; format: cell-based, human
# Method: (§2) In FIG. 10, it can be seen that T101 causes an increase in both JNK and MAPK phosphorylation 30 min after T101 application, while no change in the IκB protein level was detected. No change of IκB levels was detected at shorter time points as well. Therefore, it is assumed that the JNK pathway and MAP kinase pathway are activated by T101, while NF-κB remains unactivated. However, not only the caspase 8 pathway is activated upon T1/ST2 activation by T101, but also the caspase 9 dependent cascade is stimulated.
# U937 cells [3] = assay: Western blot for phosphorylated JNK, phosphorylated MAPK p38 and IκB in U937 cells; format: cell-based, human
# Method: The U937 cells were incubated for 30 min. with (+) or without (−) T101;
# In order to determine the effect of T101 on various apoptotic signaling pathways, JNK and MAP kinase phosphorylation were measured.
# as §2
# U937 cells [4] = assay: Western blot for activated caspase 3 in FCS-activated U937 cells; format: cell-based, human; conditions: U937 cells activated with 10% FCS, 18 hr, 10 pg/ml to 100 ng/ml T101
# Method: 10^6 U937 cells, a human leukemic monoblast cell line, were incubated for 18 hr at 37° C. in RPMI buffer+10% fetal calf serum (FCS) with different concentrations of T101. The FCS causes activation of the U937 cells. The cells were then lysed in RIPA buffer in the presence of protease inhibitors, and run on SDS-PAGE. A Western blot of the gel was performed with anti-caspase 3 antibody.
# The lanes of the gel were loaded with lysed cells which had been incubated with the following concentrations of T101: A,B—0 pg/ml (control); C—10 pg/ml; D—100 pg/ml; E—1 ng/ml; F—10 ng/ml; G—100 ng/ml.
# Thus, T101 can be expected to cause apoptosis in activated monocytes, thereby reducing the possibility of development of a disease associated with activated monocytes, such as atherosclerosis.
# murine spleenocytes [5] = assay: Activated caspase 3 in spleenocytes of mice injected ip with LPS and/or T101; format: in vivo; conditions: Balb/c mice
# Method: Four groups of 3 mice each (male Balb/c, 6 wks old, approx. 20 gr.) were injected ip with the following: A—saline (control); B—50 μg LPS (induces activation of monocytes); C —50 μg LPS+1 μg T101; D—1 μg T101. After 24 hours the mice were sacrificed and the spleens were removed. The spleens of the mice of each group were combined and lysed in RIPA buffer in the presence of protease inhibitors, and 30×10^6 lysed spleenocytes from each group were run on SDS-PAGE. A Western blot of the gel was performed with antibody against activated caspase 3.
# murine spleenocytes [6] = assay: Activated caspase 6 in spleenocytes of mice injected ip with LPS and/or T101; format: in vivo; conditions: Balb/c mice
# mouse spleenocytes = assay: Expression of VEGFA, VEGFR1 and IL-10 in mouse spleenocytes; format: cell-based; conditions: increasing concentrations of T101
# Excerpt: HPRT was included as a negative control.
# Mouse spleenocytes were challenged without or with increasing concentrations of T101. VEGFA, VEGFR1 and IL-10 expression were compared. VEGFA is a major proangiogenic cytokine, and VEGFR1 is a receptor for VEGFA. HPRT was included as a negative control.
# [7] = test system: human lung carcinoma cells; assay: Induction of apoptosis in human lung carcinoma cells; format: cell-based; conditions: not shown
# Excerpt: (§3) It may be seen in FIG. 9 that in untreated cells (time 0), a significant level of FLIP but very little caspase 8 are observed. […] It is seen that the changes in FLIP and caspase 8 are time-sensitive, with the greatest changes seen at the short time points (10′), after which their levels gradually return to baseline. Similar results were obtained with other cell lines as well.
# [8] = test system: murine mammary gland carcinoma cells; assay: Induction of apoptosis in murine mammary gland carcinoma cells; format: cell-based; conditions: not shown
# Excerpt: as §3
# T1/ST2 receptor = assay: Streptavidin bead pull-down of FC-T1/ST2 by biotin-labeled T101, Western blot; format: binding; conditions: T101-bio pre-incubated with FC-T1/ST2 45 min at 4° C., Streptavidin beads
# Method: An antibody to the T1/ST2 receptor (FC-T1/ST2), and T101 labeled with biotin (T101-bio) were prepared. Streptavidin beads were incubated for 1 hr. at 4° C. with each of the following: A —T101-bio alone; B—Fc-T1/ST2 alone; C—FC-T1/ST2 pre-incubated with T101-bio for 45 min. at 4° C. After incubation, the beads were spun down and washed 3 times with PBS+0.1% Tween 20. The beads were then loaded on SDS-PAGE and a Western blot was performed using antibody against T1/ST2.
# U937 cells [9] = assay: Time course of FLIP and caspase 8 in T1/ST2 immuno-precipitated from U937 cells; format: cell-based, human
# Method: The samples were obtained from T1/ST2 immuno-precipitated from U937 cells at different time points after incubation with T101. The antibodies used to detect caspase 8 were against the active cleaved species;
# In this example, the time course of the effect of T101 on T1/ST2 receptor-related apoptosis was investigated by following the degradation of FLIP and activation of caspase 8. U937 cells were incubated with T101, and at different time points T1/ST2 was immuno-precipitated from the cells and analyzed by Western blot for the presence of caspase 8 and FLIP.
# [10] = test system: mouse N2A neublastoma cells; assay: Induction of apoptosis in mouse N2A neublastoma cells; format: cell-based; conditions: not shown
# Excerpt: as §3
# [11] = Blood cholesterol level in mice after 3 weeks of treatment; format: in vivo; conditions: female Balb/C mice, 50 μg/Kg twice a day for 3 weeks, pooled blood, versus saline
# Method: as §1
# [12] = test system: human breast cancer cells; assay: Induction of apoptosis in human breast cancer cells; format: cell-based; conditions: not shown
# Excerpt: as §3
# human glioblastoma cells = assay: Induction of apoptosis in human glioblastoma cells; format: cell-based; conditions: not shown
# Excerpt: as §3
# U937 cells [13] = assay: Western blot for the 85 kDa cleavage product of PARP in U937 cells; format: cell-based, human
# Method: U937 cells were treated as in FIG. 1 and loaded on SDS-PAGE, except that the gel was treated with antibody against the 85 kDa cleavage product of PARP, which is produced by the cleavage of PARP by caspase 3, and is active in apoptosis.
# The lanes of the gel were loaded with lysed cells which had been incubated with the following concentrations of T101: A —100 ng/ml; B —10 ng/ml; C —1 ng/ml; D —100 pg/ml; E —10 pg/ml; F —0 pg/ml (control). The bands show the location of the 85 kDa cleavage product of PARP.
# U937 cells were treated as in FIG. 2 except that some of the cells were not treated with FCS, i.e. not activated. The lysed cells were loaded on SDS-PAGE, which was treated with antibody against the 85 kDa cleavage product of PARP.
# The lanes of the gel were loaded with lysed cells, as follows: A—activated cells+0 ng/ml T101 (control) [the result with nonactivated cells was similar]; B—nonactivated cells+100 ng/ml T101; C—activated cells+100 ng/ml T101.
# [14] = 1 μg T101 without LPS, 24 hours
# [15] = T1/ST2 immuno-precipitate from U937 cells, greatest change at 10′
substance,measurement,setting,value
"T101: human thymus peptide, 51 amino acids: LHLWLSGEPVQSSGTKDMRSKSDSKRVSDKQLISKAVWWTFFLPSTLWERK (listed as Homo sapiens)","liver enzyme levels in the blood (AST, ALP, ALT)",[1],significant decrease
same,Bcl-2 protein,U937 cells [2],very pronounced degradation
same,full-length caspase 9 protein,U937 cells [2],cleavage of the full-length caspase 9 protein
same,JNK phosphorylation,U937 cells [3]; 30 min after T101 application,increase
same,MAPK phosphorylation,U937 cells [3]; 30 min after T101 application,increase
same,IκB protein level,U937 cells [3]; 30 min and shorter time points,no change
same,activated caspase 3 (Western blot),U937 cells [4],increased activated caspase 3
same,activated caspase 3 in spleenocytes,murine spleenocytes [5]; [14],inhibition of activated caspase 3
same,activated caspase 3 in spleenocytes,"murine spleenocytes [5]; 50 μg LPS+1 μg T101, 24 hours, versus control",increased amount of activated caspase 3
same,caspase 6 in nonactivated spleenocytes,murine spleenocytes [6]; [14],inhibiting caspase 6
same,caspase 6 in activated spleenocytes,"murine spleenocytes [6]; 50 μg LPS+1 μg T101, 24 hours",induces caspase 6
same,expression of IL-10,mouse spleenocytes,enhanced
same,expression of VEGFA,mouse spleenocytes,inhibits the expression
same,expression of VEGFR1,mouse spleenocytes,inhibits the expression
same,induction of apoptosis,[7],able to induce apoptosis
same,induction of apoptosis,[8],able to induce apoptosis
same,binding to the T1/ST2 receptor,T1/ST2 receptor,binds to the T1/ST2 receptor
same,active caspase 8,U937 cells [9]; [15],concomitant increase of active caspase 8
same,level of FLIP,U937 cells [9]; [15],level of FLIP decreases
same,inactive caspase 8,"U937 cells [9]; U937 cells, not shown",decrease of the inactive caspase 8
same,induction of apoptosis,[10],able to induce apoptosis
same,cholesterol level in the blood,[11],significant decrease
same,induction of apoptosis,[12],able to induce apoptosis
same,induction of apoptosis,human glioblastoma cells,able to induce apoptosis
same,"cleavage of PARP, activated versus nonactivated monocytes","U937 cells [13]; U937 cells with or without FCS, 100 ng/ml T101",induced the cleavage of PARP only in the activated monocytes
same,amount of the 85 kDa cleavage product of PARP,"U937 cells [13]; activated U937 cells, 10 pg/ml T101",significantly increased
